Our source for the IC50 values is patent publication US20230081390A1, “INHIBITORS OF RAF KINASES” (Kinnate Biopharma Inc., priority 2019, published 2023).

The experiment has as its target human RAF1 (Homo sapiens, UniProt P04049). As to the kind of experiment: Protein kinase assay (33P-ATP filter binding), human RAF1, 10-dose IC50. Format: biochemical. Conditions: MEK1 (K97R) substrate 3 micromolar, ATP 10 micromolar, read-out: RAF-1 IC50. The procedure, abridged: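 Radiometric filter-binding format: 10 µM ATP, 3 µM MEK1 (K97R) as substrate for human RAF1, 2 hr at room temperature in 20 mM HEPES pH 7.5 with 10 mM MgCl2. Compounds were dispensed acoustically from DMSO. IC50 came from percent kinase activity relative to vehicle over a 10-dose series.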

Chain of human RAF1 (P04049 whole entry): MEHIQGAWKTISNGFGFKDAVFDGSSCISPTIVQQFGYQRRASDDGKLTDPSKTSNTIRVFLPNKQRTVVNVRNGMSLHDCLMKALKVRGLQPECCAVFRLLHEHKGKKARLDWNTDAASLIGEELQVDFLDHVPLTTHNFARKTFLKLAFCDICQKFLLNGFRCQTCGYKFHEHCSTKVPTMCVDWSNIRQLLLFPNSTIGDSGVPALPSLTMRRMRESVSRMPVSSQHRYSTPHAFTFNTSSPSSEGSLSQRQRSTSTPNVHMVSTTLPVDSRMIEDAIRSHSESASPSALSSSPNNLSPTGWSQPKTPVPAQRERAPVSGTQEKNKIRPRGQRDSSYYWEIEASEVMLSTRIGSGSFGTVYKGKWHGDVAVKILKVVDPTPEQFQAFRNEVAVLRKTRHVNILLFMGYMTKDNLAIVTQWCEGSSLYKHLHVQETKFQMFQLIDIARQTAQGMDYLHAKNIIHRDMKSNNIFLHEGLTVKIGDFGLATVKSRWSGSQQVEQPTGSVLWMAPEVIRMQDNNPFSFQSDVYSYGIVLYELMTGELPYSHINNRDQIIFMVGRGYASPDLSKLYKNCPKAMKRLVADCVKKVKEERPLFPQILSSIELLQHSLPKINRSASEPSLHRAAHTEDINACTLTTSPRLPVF

As to `Cc1ccc(NC(=O)N2CC=C(C(F)(F)F)C2)cc1-c1cc(O[C@H](C)[C@@H](C)O)nc(N2CCOCC2)c1` [Example 171, N-(3-(2-(((2R,3R)-3-hydroxybutan-2-yl)oxy)-6-morpholinopyridin-4-yl)-4-methylphenyl)-3-(trifluoromethyl)-2,5-dihydro-1H-pyrrole-1-carboxamide], the IC50 is less than 10 nM. Under `Cc1ccc(NC(=O)N2CC[C@H](OC(F)(F)F)C2)cc1-c1cc(O[C@H](C)[C@@H](C)O)nc(N2CCOCC2)c1` [Example 172, (S)-N-(3-(2-(((2R,3R)-3-hydroxybutan-2-yl)oxy)-6-morpholinopyridin-4-yl)-4-methylphenyl)-3-(trifluoromethoxy)pyrrolidine-1-carboxamide] stands less than 10 nM; under `Cc1ccc(NC(=O)n2ccc(C(C)(C)C)c2)cc1-c1cc(OCCO)nc(N2CCOCC2)c1` [Example 173, 3-(tert-butyl)-N-(3-(2-(2-hydroxyethoxy)-6-morpholinopyridin-4-yl)-4-methylphenyl)-1H-pyrrole-1-carboxamide], less than 10 nM. Under `Cc1ccc(NC(=O)N2CC[C@H](OC(F)F)C2)cc1-c1cc(O[C@H](C)[C@@H](C)O)nc(N2CCOCC2)c1` [Example 174, (S)-3-(difluoromethoxy)-N-(3-(2-(((2R,3R)-3-hydroxybutan-2-yl)oxy)-6-morpholinopyridin-4-yl)-4-methylphenyl)pyrrolidine-1-carboxamide] stands less than 10 nM; under `Cc1ccc(NC(=O)N2C[C@@H]3[C@H](C2)[C@H]3C(F)(F)F)cc1-c1cc(OCCO)nc(N2CCOCC2)c1` [Example 176, (1R,5S,6r)-N-(3-(2-(2-hydroxyethoxy)-6-morpholinopyridin-4-yl)-4-methylphenyl)-6-(trifluoromethyl)-3-azabicyclo[3.1.0]hexane-3-carboxamide], less than 10 nM. `Cc1ccc(NC(=O)N2CCC(CC(F)(F)F)C2)cc1-c1cc(OC[C@@H](O)CO)nc(N2CCOCC2)c1` (stereo partly drawn) [Example 179, N-(3-(2-((S)-2,3-dihydroxypropoxy)-6-morpholinopyridin-4-yl)-4-methylphenyl)-3-(2,2,2-trifluoroethyl)pyrrolidine-1-carboxamide]: the IC50 was less than 10 nM. In the case of `Cc1ccc(NC(=O)N2CCC(CC(F)(F)F)C2)cc1-c1cc(OC[C@H](O)CO)nc(N2CCOCC2)c1` (stereo partly drawn) [Example 180, N-(3-(2-((R)-2,3-dihydroxypropoxy)-6-morpholinopyridin-4-yl)-4-methylphenyl)-3-(2,2,2-trifluoroethyl)pyrrolidine-1-carboxamide], the IC50 is less than 10 nM. For the compound `Cc1cc(F)c(NC(=O)N2CC[C@@H](CC(F)(F)F)C2)cc1-c1cc(OC[C@@H](C)O)nc(N2CCOCC2)c1` [Example 181, (S)-N-(2-fluoro-5-(2-((R)-2-hydroxypropoxy)-6-morpholinopyridin-4-yl)-4-methylphenyl)-3-(2,2,2-trifluoroethyl)pyrrolidine-1-carboxamide], the IC50 was less than 10 nM.

For the compound `Cc1ccc(NC(=O)N2CCC(CC(F)(F)F)C2)cc1-c1cc(OC2CCOCC2)nc(N2CCOCC2)c1` (stereo not drawn) [Example 187, N-(4-methyl-3-(2-morpholino-6-((tetrahydro-2H-pyran-4-yl)oxy)pyridin-4-yl)phenyl)-3-(2,2,2-trifluoroethyl)pyrrolidine-1-carboxamide], the half-maximal inhibitory concentration (IC50) was less than 10 nM. Under `Cc1ccc(NC(=O)N2CCC(CC(F)(F)F)C2)cc1-c1cc(O[C@H]2CCOC2)nc(N2CCOCC2)c1` (stereo partly drawn) [Example 188, N-(4-methyl-3-(2-morpholino-6-(((S)-tetrahydrofuran-3-yl)oxy)pyridin-4-yl)phenyl)-3-(2,2,2-trifluoroethyl)pyrrolidine-1-carboxamide] stands less than 10 nM. Under `Cc1ccc(NC(=O)N2CCC(CC(F)(F)F)C2)cc1-c1cc(OCCCO)nc(N2CCOCC2)c1` (stereo not drawn) [Example 189, N-(3-(2-(3-hydroxypropoxy)-6-morpholinopyridin-4-yl)-4-methylphenyl)-3-(2,2,2-trifluoroethyl)pyrrolidine-1-carboxamide] stands less than 10 nM; under `Cc1ccc(NC(=O)N2CCC(CC(F)(F)F)C2)cc1-c1cc(OC2CCN(C)CC2)nc(N2CCOCC2)c1` (stereo not drawn) [Example 190, N-(4-methyl-3-(2-((1-methylpiperidin-4-yl)oxy)-6-morpholinopyridin-4-yl)phenyl)-3-(2,2,2-trifluoroethyl)pyrrolidine-1-carboxamide], less than 10 nM. Under `Cc1ccc(NC(=O)N2CCC(CC(F)(F)F)C2)cc1-c1cc(O[C@H]2CCN(C)C2)nc(N2CCOCC2)c1` (stereo partly drawn) [Example 195, N-(4-methyl-3-(2-(((S)-1-methylpyrrolidin-3-yl)oxy)-6-morpholinopyridin-4-yl)phenyl)-3-(2,2,2-trifluoroethyl)pyrrolidine-1-carboxamide] stands less than 10 nM; under `Cc1ccc(NC(=O)N2CCC(CC(F)(F)F)C2)cc1-c1cc(OCC(C)(C)CO)nc(N2CCOCC2)c1` (stereo not drawn) [Example 196, N-(3-(2-(3-hydroxy-2,2-dimethylpropoxy)-6-morpholinopyridin-4-yl)-4-methylphenyl)-3-(2,2,2-trifluoroethyl)pyrrolidine-1-carboxamide], less than 10 nM; under `Cc1ccc(NC(=O)N2CCC(CC(F)(F)F)C2)cc1-c1cc(OCC(C)CO)nc(N2CCOCC2)c1` (stereo not drawn) [Example 199, N-(3-(2-(3-hydroxy-2-methylpropoxy)-6-morpholinopyridin-4-yl)-4-methylphenyl)-3-(2,2,2-trifluoroethyl)pyrrolidine-1-carboxamide], less than 10 nM. Turning to `Cc1ccc(NC(=O)N2CCC(CC(F)(F)F)C2)cc1-c1cc(O[C@@H]2CCOC2)nc(N2CCOCC2)c1` (stereo partly drawn) [Example 200, N-(4-methyl-3-(2-morpholino-6-(((R)-tetrahydrofuran-3-yl)oxy)pyridin-4-yl)phenyl)-3-(2,2,2-trifluoroethyl)pyrrolidine-1-carboxamide], the half-inhibitory concentration (IC50) is less than 10 nM. Under `Cc1ccc(NC(=O)N2CCC(CC(F)(F)F)C2)cc1-c1cc(O[C@H]2CCNC2)nc(N2CCOCC2)c1` (stereo partly drawn) [Example 201, N-(4-methyl-3-(2-morpholino-6-((S)-pyrrolidin-3-yloxy)pyridin-4-yl)phenyl)-3-(2,2,2,- trifluoroethyl)pyrrolidine-1-carboxamide] stands less than 10 nM; under `Cc1ccc(NC(=O)N2CCC(CC(F)(F)F)C2)cc1-c1cc(O[C@@H]2CCN(C)C2)nc(N2CCOCC2)c1` (stereo partly drawn) [Example 202, N-(4-methyl-3-(2-(((R)-1-methylpyrrolidin-3-yl)oxy)-6-morpholinopyridin-4-yl)phenyl)-3-(2,2,2-trifluoroethyl)pyrrolidine-1-carboxamide], less than 10 nM. As for `Cc1ccc(NC(=O)N2CCC(CC(F)(F)F)C2)cc1-c1cc(O[C@@H]2CCNC2)nc(N2CCOCC2)c1` (stereo partly drawn) [Example 203, N-(4-methyl-3-(2-morpholino-6-((R)-pyrrolidin-3-yloxy)pyridin-4-yl)phenyl)-3-(2,2,2-trifluoroethyl)pyrrolidine-1-carboxamide], the figure is less than 10 nM; as for `Cc1ccc(NC(=O)N2CC[C@@H](CC(F)(F)F)C2)cc1-c1cc(OC2CNC2)nc(N2CCOCC2)c1` [Example 204, (S)-N-(3-(2-(azetidin-3-yloxy)-6-morpholinopyridin-4-yl)-4-methylphenyl)-3-(2,2,2-trifluoroethyl)pyrrolidine-1-carboxamide], less than 10 nM; as for `Cc1ccc(NC(=O)N2CC[C@@H](OC(F)(F)F)C2)cc1-c1cc(OC2CNC2)nc(N2CCOCC2)c1` [Example 205, (R)-N-(3-(2-(azetidin-3-yloxy)-6-morpholinopyridin-4-yl)-4-methylphenyl)-3-(trifluoromethoxy)pyrrolidine-1-carboxamide], less than 10 nM. As to `Cc1ccc(NC(=O)N2CC[C@@H](CC(F)(F)F)C2)cc1-c1cc(OC2CC(O)C2)nc(N2CCOCC2)c1` (stereo partly drawn) [Example 206, (3S)-N-[3-[2-(3-hydroxycyclobutoxy)-6-(morpholin-4-yl)pyridin-4-yl]-4-methylphenyl]-3-(2,2,2-trifluoroethyl)pyrrolidine-1-carboxamide], the IC50 was less than 10 nM.

Regarding `Cc1ccc(NC(=O)N2CC[C@@H](CC(F)(F)F)C2)cc1-c1cc(O[C@H]2CC[C@H](O)C2)nc(N2CCOCC2)c1` [Example 207, (3S)-N-[3-(2-[[(1S,3S)-3-hydroxycyclopentyl]oxy]-6-(morpholin-4-yl)pyridin-4-yl)-4-methylphenyl]-3-(2,2,2-trifluoroethyl)pyrrolidine-1-carboxamide], the IC50 was less than 10 nM. As for `Cc1ccc(NC(=O)N2CC[C@@H](CC(F)(F)F)C2)cc1-c1cc(O[C@@H]2CC[C@@H](O)C2)nc(N2CCOCC2)c1` [Example 208, (3S)-N-[3-(2-[[(1R,3R)-3-hydroxycyclopentyl]oxy]-6-(morpholin-4-yl)pyridin-4-yl)-4-methylphenyl]-3-(2,2,2-trifluoroethyl)pyrrolidine-1-carboxamide], the IC50 is less than 10 nM. Under `Cc1ccc(NC(=O)N2CC[C@@H](CC(F)(F)F)C2)cc1-c1cc(O[C@H]2CC[C@@H](O)C2)nc(N2CCOCC2)c1` [Example 209, (3S)-N-[3-(2-[[(1S,3R)-3-hydroxycyclopentyl]oxy]-6-(morpholin-4-yl)pyridin-4-yl)-4-methylphenyl]-3-(2,2,2-trifluoroethyl)pyrrolidine-1-carboxamide] stands less than 10 nM; under `Cc1ccc(NC(=O)N2CC[C@@H](CC(F)(F)F)C2)cc1-c1cc(O[C@@H]2CC[C@H](O)C2)nc(N2CCOCC2)c1` [Example 210, (3S)-N-[3-(2-[[(1R,3S)-3-hydroxycyclopentyl]oxy]-6-(morpholin-4-yl)pyridin-4-yl)-4-methylphenyl]-3-(2,2,2-trifluoroethyl)pyrrolidine-1-carboxamide], less than 10 nM. Under `Cc1ccc(NC(=O)N2CC[C@@H](CC(F)(F)F)C2)cc1-c1cc(OC2CCC(C)(O)CC2)nc(N2CCOCC2)c1` (stereo partly drawn) [Example 211, (3S)-N-(3-[2-[(4-hydroxy-4-methylcyclohexyl)oxy]-6-(morpholin-4-yl)pyridin-4-yl]-4-methylphenyl)-3-(2,2,2-trifluoroethyl)pyrrolidine-1-carboxamide (cis)] stands less than 10 nM.
